Results taken from paper PMC9146423, “Discovery of Nitro-azolo[1,5-a]pyrimidines with Anti-Inflammatory and Protective Activity against LPS-Induced Acute Lung Injury” (Pharmaceuticals, 2022).

Tests used:
[1] = test system: LPS-stimulated peritoneal macrophages of C57bl/6j mice; experiment: IL-6 secretion by LPS-stimulated peritoneal macrophages (ELISA); assay type: cell-based; conditions: Mus musculus, Peritoneal macrophage, 95% C.I. 1.43-9.87 μM
Procedure: Peritoneal macrophages (PM) were isolated from the peritoneal exudate of 30 male C57bl/6j mice. To accumulate PM, 1 mL of 3% peptone solution was injected intraperitoneally. After 3 days, the mice were euthanized by cervical dislocation. Cells of peritoneal exudate were obtained by aseptic washing of the abdominal cavity with 5 mL of sterile Hanks’s solution (+4–6 °C) without calcium and magnesium ions. The total number and viability of cells were assessed in a Goryaev counting chamber (Russia) with a 0.4% trypan blue staining (Sigma-Aldrich, St. Louis, MO, USA). The cell concentration was adjusted to 1.0 × 10^6 cells/mL in DMEM (Gibco) supplemented with 2 mM L-glutamine (Gibco, Waltham, MA, USA), 10% heat-inactivated fetal bovine serum (BioClot, Bavaria, Germany), 100 U/mL penicillin, and […] streptomycin (Gibco) and plated 200 μL/well in 96-well transparent plates (SPL Life Sciences Co., Ltd., Pocheon-si, Korea). After 2 h at 37 °C in a humidified atmosphere with 5% CO2, the wells were washed to remove non-adherent cells. […]
The cell supernatant was collected and centrifuged at 1000 g for 20 min in a 2–16PK centrifuge (Sigma, Osterode am Harz, Germany). The concentrations of IL-6 and TNF-α were determined by ELISA using commercial kits (Cloud-clone, Houston, TX, USA) with a microplate reader Infinite M200 PRO (Tecan, Grödig, Austria).

[2] = test system: LPS-stimulated peritoneal macrophages of C57bl/6j mice; experiment: Inhibition of LPS-induced NO synthesis (nitrite accumulation, Griess reagent) in peritoneal macrophages; assay type: cell-based, mouse; conditions: Mus musculus, Peritoneal macrophage
Procedure: (§1) Peritoneal macrophages (PM) were isolated from the peritoneal exudate of 30 male C57bl/6j mice. To accumulate PM, 1 mL of 3% peptone solution was injected intraperitoneally. After 3 days, the mice were euthanized by cervical dislocation. Cells of peritoneal exudate were obtained by aseptic washing of the abdominal cavity with 5 mL of sterile Hanks’s solution (+4–6 °C) without calcium and magnesium ions. The total number and viability of cells were assessed in a Goryaev counting chamber (Russia) with a 0.4% trypan blue staining (Sigma-Aldrich, St. Louis, MO, USA). The cell concentration was adjusted to 1.0 × 10^6 cells/mL in DMEM (Gibco) supplemented with 2 mM L-glutamine (Gibco, Waltham, MA, USA), 10% heat-inactivated fetal bovine serum (BioClot, Bavaria, Germany), 100 U/mL penicillin, and […] streptomycin (Gibco) and plated 200 μL/well in 96-well transparent plates (SPL Life Sciences Co., Ltd., Pocheon-si, Korea). After 2 h at 37 °C in a humidified atmosphere with 5% CO2, the wells were washed to remove non-adherent cells. After 24 h of incubation, 20 μL of the supernatants were substituted with 20 μL of solutions of test compounds, followed by E. coli O127:B8 LPS (100 ng/mL final concentration) after 30 min. The experiments were run in 3 independent replicates.
The accumulation of the nitrite anion (a stable end product of NO decomposition produced by iNOS) in supernatants was determined using a standard Griess reagent. Briefly, 50 μL of supernatants were collected 22 h after incubation of PM, and the test and control compounds were mixed with 50 μL of 1% […] in 2.5% H3PO4 and 50 μL of 0.1% N-(1-naphthyl) ethylenediamine in 2.5% H3PO4. After incubation at 23 °C for 10 min in an orbital shaker, the optical density was determined at a wavelength of 550 nm with a microplate reader Infinite M200 PRO (Tecan, Grödig, Austria).

[3] = test system: peritoneal macrophages of C57bl/6j mice; experiment: Yeast phagocytosis assay and macrophage spreading; assay type: cell-based, mouse
Procedure: Next, we evaluated lead compound 9g for immunodepressant activity in parallel with the reference drug dexamethasone. Yeast phagocytosis was assessed by microscopic examination as the number of phagocytes per 100 macrophages and as the number of phagocytosed yeast cells in each phagocyte. Cell viability was assessed as lactate dehydrogenase activity in cell supernatants, which correlates with increased cell membrane permeability.
Peritoneal macrophages of C57bl/6j mice were cultured in a 24-well plate at a volume of 500 μL/well (1 × 10^5 cells/mL) for 24 h. Test compounds or DMSO were added to wells in triplicate followed by 50 μL of 1% yeast suspension, and the plates were incubated for 40 min. After 24 or 72 h, the medium was removed. The cells were fixed with May–Grunwald methanol dye and stained with Azur-Eosin in Romanovsky’s modification for 45 min at room temperature, washed, air-dried, and analyzed using a microscope Mikmed-6 (Russia), equipped with a digital camera. The study was performed in three technical replicates and two series; 100 macrophages were processed in each sample to count the captured yeast cells. Macrophage spreading was assessed as a number of pseudopodia.

[4] = Cytotoxicity, lactate dehydrogenase (LDH) activity in cell supernatants; assay type: cell-based, mouse; conditions: male, C57bl/6j, mouse, LPS-stimulated peritoneal macrophages
Procedure: as §1
(§2) The activity of lactate dehydrogenase (LDH) in a cell culture medium served as a marker of membrane permeability and cell death. […] Then, 25 μL of a 6.48 mM pyruvate solution was added to the mixture. The optical density was followed at a wavelength of 340 nm for 20 min. The MTT-test was performed 24 h after incubations of cells with tested compounds. Briefly, 20 μL of MTT solution was added to each well, incubated at 37 °C in a humidified atmosphere containing 5% CO2 for 4 h. The culture medium was removed, the cells were lysed, and formazan crystals were dissolved in 150 μL DMSO. The plates were shaken at room temperature for 10 min, and the optical density was measured in a microplate reader Infinite M200 PRO (Tecan, Grödig, Austria) at a wavelength of 565 nm.

[5] = test system: peritoneal macrophages of C57bl/6j mice; experiment: as above; assay type: cell-based, mouse
Procedure: as §1, §2

Cc1nc2nnnn2c(NCCc2ccc(O)cc2)c1[N+](=O)[O-] [Compound 9g, N-[2-(4-Hydroxyphenyl)ethyl]-5-methyl-6-nitrotetrazolo-[1,5-a]pyrimidin-7-amine] showed an IC50 [1] of 3.72 µM, an inhibition at 100 µM ([2]; 22 h, 100 μM, m ± SD, read-out: Inhibition of NO Synthesis vs. LPS Control) of 58.5 ± 5.93% and an IC50 ([2]; LPS-stimulated peritoneal macrophages) of 3.72 µM. For the same compound, the Suppression of phagocytosis ([3]; after 24-h of incubation, data not shown) was “not”, the “Decrease of the mean number of phagocytosed yeast cells” value ([3]; after 72 h of incubation) was 16% and the “Macrophage phagocytic activity (in words)” value ([3]; after 72 h of incubation) was “preserved macrophage phagocytic activity”. For the same compound, the Macrophage spreading ([3]; yeast-stimulated, visually scored) was “reduced it to a nearly unstimulated level”, the CC50 at 24 h [4] was over 100 µM and the “Cytotoxic properties during the phagocytosis experiment (LDH)” value ([5]; up to 72 h of incubation) was “No cytotoxic properties were noted”. For the same compound, the “Effect on viability of the macrophages” value ([5]; up to a concentration of 50 μM) was “did not affect the viability”.
